Columns and labels:
Culex quinquefasciatus [1] = test: contact activity via water treatment, southern house mosquito larvae; conditions: house mosquito larvae (4th-instars), rate 10 ppm
Description: (§1) 2. Screening method to test contact activity against yellowfever mosquito, southern house mosquito, and malaria mosquito larvae via water treatment
(§2) Well plates were used as test arenas. The active ingredient was dissolved in acetone and diluted with water to obtain the concentrations needed. The final solutions containing appr. 1% acetone were placed into each well. Approximately 10 mosquito larvae (4th-instars) in 1 ml water were added to each well. Larvae were fed one drop of liver powder each day. The dishes were covered and maintained at 22° C. Mortality was recorded daily and dead larvae and live or dead pupae were removed daily. At the end of the test remaining live larvae were recorded and percent mortality was calculated.
(§3) Each test was replicated at least 3 times.

Ctenocephalides felis = test: contact activity via glass contact, cat flea; conditions: rate 100 ppm
Description: (§4) 1. Screening method to test contact activity against stable fly, yellowfever mosquito, house mosquito, malaria mosquito, cat flea, and brown dog tick via glass contact
(§5) Glass vials (20 ml scintillation vials) were treated with 0.5 ml of a solution of active ingredient in acetone. Each vial was rolled uncapped for ca. 10 minutes to allow the a.i. to completely coat the vial and to allow for full drying of the acetone. Insects or ticks were placed into each vial.
as §3

Anopheles albimanus [2] = test: contact activity via glass contact, malaria mosquito; conditions: rate 1 ppm
Description: as §4, §5, §3

Aedes aegypti [3] = test: contact activity via water treatment, yellowfever mosquito larvae; conditions: yellowfever mosquito larvae (4th-instars), rate 10 ppm
Description: as §1, §2, §3

Culex quinquefasciatus [4] = test: contact activity via glass contact, house mosquito; conditions: rate 0.5 ppm
Description: as §4, §5, §3

Aedes aegypti [5] = test: contact activity via glass contact, yellowfever mosquito; conditions: rate 10 ppm
Description: as §4, §5, §3

Anopheles albimanus [6] = test: contact activity via water treatment, malaria mosquito larvae; conditions: malaria mosquito larvae (4th-instars), rate 1.0 ppm
Description: as §1, §2, §3

Stomoxys calcitrans = test: contact activity via glass contact, stable fly; conditions: rate 10 ppm
Description: as §4, §5, §3

SMILES | Days or Hours to achieve 100% mortality (Culex quinquefasciatus [1]) [days] | Days or Hours to achieve 100% mortality (Ctenocephalides felis) [days] | Days or Hours to achieve 100% mortality (Anopheles albimanus [2]) [days] | Days or Hours to achieve 100% mortality (Aedes aegypti [3]) [days] | Days or Hours to achieve 100% mortality (Culex quinquefasciatus [4]) [h] | Days or Hours to achieve 100% mortality (Aedes aegypti [5]) [h] | Days or Hours to achieve 100% mortality (Anopheles albimanus [6]) [days] | Days or Hours to achieve 100% mortality (Stomoxys calcitrans) [h]
CCN/C(=N\Nc1c(Cl)cc(C(F)(F)F)cc1Cl)C(C)(C)C [I-1, N-ethyl-2,2-dimethylpropionamide-2-(2,6-dichloro-α,α,α-trifluoro-p-tolyl)-hydrazone] | 1 | 2 | 1 | 2 | 4 | 4 | 1 | 4
CCN/C(=N\Nc1c(Cl)cc(C(F)(F)F)cc1Cl)C1(C)CC1(Cl)Cl (stereo not drawn) [1-2, N-Ethyl-2,2-dichloro-1-methylcyclopropane-carboxamide-2-(2,6-dichloro-α,α,α-trifluoro-p-tolyl)hydrazone] | 1 | 2 | 1 | 2 | 4 | 4 | 1 | 4

From patent US20070259962A1, “Use of N-Arylhydrazine Derivatives for Combating Pests in and on Animals” (priority 2003, published 2007)
